# From paper PMC11397024, “Strategic Fluorination to Achieve a Potent, Selective, Metabolically Stable, and Orally Bioavailable Inhibitor of CSNK2” (Molecules, 2024)
# Tests used:
# Assay in all cases: NanoBRET K192
# Format in all cases: cell-based
# [1] = target: T1, ULK3v1 (Homo sapiens, UniProt Q6PHR2); details: HEK293
# T1 construct: host or cells: HEK293
# In short: (§1)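 HEK293 cells were transfected overnight with NanoLuc–kinase fusion vectors, then treated for 2 h at 37 °C with compound (added as 100 μM working solution) plus K10 tracer. BRET was read at 450/610 nm after substrate and extracellular inhibitor, and fractional occupancy was calculated against no-compound controls.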
# [2] = target: T2, LCK (Homo sapiens, UniProt P06239); details: HEK293
# T2 construct: purchased Promega (NanoBRET Target Engagement K192 Kinase Selectivity System)
# In short: as §1
# [3] = target: T3, SIK3 (Homo sapiens, UniProt Q9Y2K2); details: HEK293
# T3 construct: purchased Promega (NanoBRET Target Engagement K192 Kinase Selectivity System)
# In short: as §1
# [4] = target: T4, LTK (Homo sapiens, UniProt P29376); details: HEK293
# T4 construct: purchased Promega (NanoBRET Target Engagement K192 Kinase Selectivity System)
# In short: as §1
# [5] = target: T5, MYLK3 (Homo sapiens, UniProt Q32MK0); details: HEK293
# T5 construct: purchased Promega (NanoBRET Target Engagement K192 Kinase Selectivity System)
# In short: as §1
# [6] = target: T6, CDK18 + Y (Homo sapiens, UniProt Q07002); details: HEK293
# T6 construct: purchased Promega (NanoBRET Target Engagement K192 Kinase Selectivity System)
# In short: as §1
# [7] = target: T7, MYLK2 (Homo sapiens, UniProt Q9H1R3); details: HEK293
# T7 construct: purchased Promega (NanoBRET Target Engagement K192 Kinase Selectivity System)
# In short: as §1
# [8] = target: T8, MAP3K11 (Homo sapiens, UniProt Q16584); details: HEK293
# T8 construct: purchased Promega (NanoBRET Target Engagement K192 Kinase Selectivity System)
# In short: as §1
# [9] = target: T9, MELK (Homo sapiens, UniProt Q14680); details: HEK293
# T9 construct: purchased Promega (NanoBRET Target Engagement K192 Kinase Selectivity System)
# T9 sequence (Q14680 whole entry): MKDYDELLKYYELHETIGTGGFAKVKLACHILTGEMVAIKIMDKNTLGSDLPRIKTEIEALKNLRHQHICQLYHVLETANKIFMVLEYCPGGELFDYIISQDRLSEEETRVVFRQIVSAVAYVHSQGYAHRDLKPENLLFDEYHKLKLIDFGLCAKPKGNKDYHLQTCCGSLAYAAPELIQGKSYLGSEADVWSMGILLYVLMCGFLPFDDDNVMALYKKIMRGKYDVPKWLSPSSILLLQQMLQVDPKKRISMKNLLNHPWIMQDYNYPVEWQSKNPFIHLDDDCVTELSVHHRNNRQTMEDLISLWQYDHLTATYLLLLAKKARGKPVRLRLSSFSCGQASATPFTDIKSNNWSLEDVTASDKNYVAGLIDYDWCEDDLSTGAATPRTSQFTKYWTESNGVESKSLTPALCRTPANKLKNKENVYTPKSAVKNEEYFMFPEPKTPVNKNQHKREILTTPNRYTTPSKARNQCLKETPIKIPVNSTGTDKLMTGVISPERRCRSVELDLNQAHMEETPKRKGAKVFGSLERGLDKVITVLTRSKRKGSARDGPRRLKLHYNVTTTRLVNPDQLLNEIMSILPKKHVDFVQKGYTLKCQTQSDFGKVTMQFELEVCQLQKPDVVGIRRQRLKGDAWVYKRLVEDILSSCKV
# In short: as §1
# [10] = target: T10, NEK3 (Homo sapiens, UniProt P51956); details: HEK293
# T10 construct: host or cells: HEK293
# In short: as §1
# [11] = target: T11, CSNK2A1 (Homo sapiens, UniProt P68400)
# T11 construct: expressed in transfected cells; host or cells: HEK293
# T11 sequence (P68400 whole entry): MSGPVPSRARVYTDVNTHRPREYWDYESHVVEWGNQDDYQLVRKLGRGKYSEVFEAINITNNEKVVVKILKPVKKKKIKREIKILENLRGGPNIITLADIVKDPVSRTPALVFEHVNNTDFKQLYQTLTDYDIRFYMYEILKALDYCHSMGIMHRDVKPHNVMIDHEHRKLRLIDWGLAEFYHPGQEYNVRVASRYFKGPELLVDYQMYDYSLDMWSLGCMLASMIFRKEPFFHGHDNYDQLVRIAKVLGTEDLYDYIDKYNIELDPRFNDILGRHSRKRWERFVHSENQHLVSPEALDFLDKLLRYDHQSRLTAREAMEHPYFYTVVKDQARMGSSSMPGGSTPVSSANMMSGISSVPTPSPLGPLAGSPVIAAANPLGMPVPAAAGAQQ
# In short: as §1
# [12] = target: T12, LIMK1 (Homo sapiens, UniProt P53667); details: HEK293
# T12 construct: purchased Promega (NanoBRET Target Engagement K192 Kinase Selectivity System)
# In short: as §1
# [13] = target: T13, ULK1 (Homo sapiens, UniProt O75385); details: HEK293
# T13 construct: purchased Promega (NanoBRET Target Engagement K192 Kinase Selectivity System)
# T13 sequence (O75385 whole entry): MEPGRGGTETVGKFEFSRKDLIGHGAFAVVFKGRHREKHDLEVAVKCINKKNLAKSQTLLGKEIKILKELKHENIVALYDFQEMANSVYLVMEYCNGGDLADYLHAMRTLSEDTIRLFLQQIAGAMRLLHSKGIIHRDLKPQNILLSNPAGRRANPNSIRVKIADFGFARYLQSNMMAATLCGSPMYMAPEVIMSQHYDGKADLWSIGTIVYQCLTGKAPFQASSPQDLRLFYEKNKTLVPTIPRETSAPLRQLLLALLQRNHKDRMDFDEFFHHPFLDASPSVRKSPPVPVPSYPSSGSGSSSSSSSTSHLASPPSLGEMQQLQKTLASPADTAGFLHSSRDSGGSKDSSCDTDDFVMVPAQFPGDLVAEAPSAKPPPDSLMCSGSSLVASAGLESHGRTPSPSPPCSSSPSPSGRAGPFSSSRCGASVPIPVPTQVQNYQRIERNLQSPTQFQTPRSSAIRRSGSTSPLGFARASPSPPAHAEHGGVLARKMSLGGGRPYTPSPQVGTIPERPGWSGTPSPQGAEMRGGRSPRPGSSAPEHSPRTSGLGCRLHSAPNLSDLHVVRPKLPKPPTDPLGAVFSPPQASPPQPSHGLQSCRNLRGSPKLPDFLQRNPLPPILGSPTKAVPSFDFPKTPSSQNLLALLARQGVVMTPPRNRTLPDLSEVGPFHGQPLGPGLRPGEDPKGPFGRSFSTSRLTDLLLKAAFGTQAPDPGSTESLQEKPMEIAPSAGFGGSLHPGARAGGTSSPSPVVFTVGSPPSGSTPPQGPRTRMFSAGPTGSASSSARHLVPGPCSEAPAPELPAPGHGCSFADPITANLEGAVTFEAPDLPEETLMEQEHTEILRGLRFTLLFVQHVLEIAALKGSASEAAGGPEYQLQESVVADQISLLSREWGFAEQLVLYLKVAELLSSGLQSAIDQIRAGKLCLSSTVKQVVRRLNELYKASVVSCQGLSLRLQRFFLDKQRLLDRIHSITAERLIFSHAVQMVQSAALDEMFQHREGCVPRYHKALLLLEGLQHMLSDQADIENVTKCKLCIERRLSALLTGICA
# In short: as §1
# [14] = target: T14, SGK1 (Homo sapiens, UniProt O00141); details: HEK293
# T14 construct: purchased Promega (NanoBRET Target Engagement K192 Kinase Selectivity System)
# T14 sequence (O00141 whole entry): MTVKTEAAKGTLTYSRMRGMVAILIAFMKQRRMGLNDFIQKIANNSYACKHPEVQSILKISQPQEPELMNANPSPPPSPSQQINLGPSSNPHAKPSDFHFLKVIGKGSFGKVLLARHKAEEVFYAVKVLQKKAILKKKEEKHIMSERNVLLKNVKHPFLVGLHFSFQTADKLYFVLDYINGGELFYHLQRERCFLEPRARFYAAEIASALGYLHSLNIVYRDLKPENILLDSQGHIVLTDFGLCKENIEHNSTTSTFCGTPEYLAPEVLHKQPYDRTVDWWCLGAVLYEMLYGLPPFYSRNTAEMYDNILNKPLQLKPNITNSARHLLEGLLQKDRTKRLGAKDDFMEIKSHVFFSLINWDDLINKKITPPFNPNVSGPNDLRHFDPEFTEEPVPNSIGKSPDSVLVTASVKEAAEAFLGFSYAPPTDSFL
# In short: as §1
# [15] = target: T15, PAK4 (Homo sapiens, UniProt O96013); details: HEK293
# T15 construct: purchased Promega (NanoBRET Target Engagement K192 Kinase Selectivity System)
# In short: as §1
# [16] = target: T16, CDK6 + D1 (Homo sapiens, UniProt Q00534); details: HEK293
# T16 construct: purchased Promega (NanoBRET Target Engagement K192 Kinase Selectivity System)
# In short: as §1
# [17] = target: T17, MAP3K3 (Homo sapiens, UniProt Q99759); details: HEK293
# T17 construct: purchased Promega (NanoBRET Target Engagement K192 Kinase Selectivity System)
# In short: as §1
# [18] = target: T18, AAK1 (Homo sapiens, UniProt Q2M2I8); details: HEK293
# T18 construct: purchased Promega (NanoBRET Target Engagement K192 Kinase Selectivity System)
# In short: as §1
# [19] = target: T19, MUSK (Homo sapiens, UniProt O15146); details: HEK293
# T19 construct: purchased Promega (NanoBRET Target Engagement K192 Kinase Selectivity System)
# In short: as §1
# [20] = target: T20, STK17B (Homo sapiens, UniProt O94768); details: HEK293
# T20 construct: purchased Promega (NanoBRET Target Engagement K192 Kinase Selectivity System)
# T20 sequence (O94768 whole entry): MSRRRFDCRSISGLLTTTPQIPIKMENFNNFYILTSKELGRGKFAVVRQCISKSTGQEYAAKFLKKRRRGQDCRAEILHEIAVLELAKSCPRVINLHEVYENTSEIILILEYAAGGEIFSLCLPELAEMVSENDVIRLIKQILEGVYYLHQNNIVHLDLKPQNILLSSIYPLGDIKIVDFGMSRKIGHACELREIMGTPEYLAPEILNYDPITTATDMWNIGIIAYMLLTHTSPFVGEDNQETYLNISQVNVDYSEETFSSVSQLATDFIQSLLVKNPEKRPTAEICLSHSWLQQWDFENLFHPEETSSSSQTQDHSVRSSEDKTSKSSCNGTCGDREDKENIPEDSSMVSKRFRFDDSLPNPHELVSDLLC
# In short: as §1
# [21] = target: T21, HIPK2 (Homo sapiens, UniProt Q9H2X6); details: HEK293
# T21 construct: purchased Promega (NanoBRET Target Engagement K192 Kinase Selectivity System)
# In short: as §1
# [22] = target: T22, BRSK2 (Homo sapiens, UniProt Q8IWQ3); details: HEK293
# T22 construct: purchased Promega (NanoBRET Target Engagement K192 Kinase Selectivity System)
# In short: as §1
# [23] = target: T23, MARK2 (Homo sapiens, UniProt Q7KZI7); details: HEK293
# T23 construct: purchased Promega (NanoBRET Target Engagement K192 Kinase Selectivity System)
# In short: as §1
# [24] = target: T24, FGFR3 (Homo sapiens, UniProt P22607); details: HEK293
# T24 construct: purchased Promega (NanoBRET Target Engagement K192 Kinase Selectivity System)
# T24 sequence (P22607 23-806): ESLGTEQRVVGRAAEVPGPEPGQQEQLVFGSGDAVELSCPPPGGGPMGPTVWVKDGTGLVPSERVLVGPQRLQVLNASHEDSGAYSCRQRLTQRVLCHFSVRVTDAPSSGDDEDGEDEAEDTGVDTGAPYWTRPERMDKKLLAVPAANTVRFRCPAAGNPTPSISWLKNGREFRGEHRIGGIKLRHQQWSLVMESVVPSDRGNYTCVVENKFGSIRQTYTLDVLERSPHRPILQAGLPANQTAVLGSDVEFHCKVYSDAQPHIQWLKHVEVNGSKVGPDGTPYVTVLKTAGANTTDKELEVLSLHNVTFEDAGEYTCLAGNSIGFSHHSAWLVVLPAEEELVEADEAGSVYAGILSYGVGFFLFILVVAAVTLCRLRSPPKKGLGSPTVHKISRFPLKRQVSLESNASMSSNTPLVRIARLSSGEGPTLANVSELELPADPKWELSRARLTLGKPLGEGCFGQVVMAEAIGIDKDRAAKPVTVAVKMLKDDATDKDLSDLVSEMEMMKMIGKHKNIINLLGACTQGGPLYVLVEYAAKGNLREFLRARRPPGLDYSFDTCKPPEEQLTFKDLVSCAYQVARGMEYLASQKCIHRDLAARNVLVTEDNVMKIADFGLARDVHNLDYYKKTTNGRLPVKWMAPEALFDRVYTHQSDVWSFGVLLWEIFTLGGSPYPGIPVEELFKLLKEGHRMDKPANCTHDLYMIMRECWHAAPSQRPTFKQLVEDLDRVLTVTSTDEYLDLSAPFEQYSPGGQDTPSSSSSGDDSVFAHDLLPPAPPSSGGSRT
# In short: as §1
# [25] = target: T25, DYRK1A (Homo sapiens, UniProt Q13627)
# T25 construct: purchased Promega (NanoBRET Target Engagement K192 Kinase Selectivity System)
# In short: as §1
# [26] = target: T26, EPHA7 (Homo sapiens, UniProt Q15375); details: HEK293
# T26 construct: host or cells: HEK293
# T26 sequence (Q15375 28-998): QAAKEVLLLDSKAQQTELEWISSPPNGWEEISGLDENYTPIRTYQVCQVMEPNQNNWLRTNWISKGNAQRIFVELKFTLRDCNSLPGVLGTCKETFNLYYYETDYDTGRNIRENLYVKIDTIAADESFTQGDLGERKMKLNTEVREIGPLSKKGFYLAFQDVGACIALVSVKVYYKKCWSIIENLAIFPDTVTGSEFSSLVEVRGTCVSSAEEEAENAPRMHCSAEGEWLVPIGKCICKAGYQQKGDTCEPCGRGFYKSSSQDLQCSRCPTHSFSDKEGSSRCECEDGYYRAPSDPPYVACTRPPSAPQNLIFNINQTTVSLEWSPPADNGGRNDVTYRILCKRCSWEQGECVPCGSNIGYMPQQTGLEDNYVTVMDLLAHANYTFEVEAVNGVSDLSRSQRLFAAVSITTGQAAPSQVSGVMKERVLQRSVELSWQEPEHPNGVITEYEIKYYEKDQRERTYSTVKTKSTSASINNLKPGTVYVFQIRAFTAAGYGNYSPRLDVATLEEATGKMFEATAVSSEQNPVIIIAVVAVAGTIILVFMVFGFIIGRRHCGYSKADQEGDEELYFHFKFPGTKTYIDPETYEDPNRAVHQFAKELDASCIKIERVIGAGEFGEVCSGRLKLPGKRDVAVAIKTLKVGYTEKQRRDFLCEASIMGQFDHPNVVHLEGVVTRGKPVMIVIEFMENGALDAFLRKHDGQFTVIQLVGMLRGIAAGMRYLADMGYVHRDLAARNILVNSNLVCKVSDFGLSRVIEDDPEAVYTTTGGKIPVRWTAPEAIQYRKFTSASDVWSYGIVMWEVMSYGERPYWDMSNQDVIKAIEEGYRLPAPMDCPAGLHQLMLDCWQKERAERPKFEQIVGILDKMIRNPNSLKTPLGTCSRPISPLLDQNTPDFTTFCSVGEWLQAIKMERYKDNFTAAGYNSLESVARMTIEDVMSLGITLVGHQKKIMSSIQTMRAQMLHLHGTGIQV
# In short: as §1
# [27] = target: T27, PHKG1 (Homo sapiens, UniProt Q16816)
# T27 construct: purchased Promega (NanoBRET Target Engagement K192 Kinase Selectivity System)
# T27 sequence (Q16816 whole entry): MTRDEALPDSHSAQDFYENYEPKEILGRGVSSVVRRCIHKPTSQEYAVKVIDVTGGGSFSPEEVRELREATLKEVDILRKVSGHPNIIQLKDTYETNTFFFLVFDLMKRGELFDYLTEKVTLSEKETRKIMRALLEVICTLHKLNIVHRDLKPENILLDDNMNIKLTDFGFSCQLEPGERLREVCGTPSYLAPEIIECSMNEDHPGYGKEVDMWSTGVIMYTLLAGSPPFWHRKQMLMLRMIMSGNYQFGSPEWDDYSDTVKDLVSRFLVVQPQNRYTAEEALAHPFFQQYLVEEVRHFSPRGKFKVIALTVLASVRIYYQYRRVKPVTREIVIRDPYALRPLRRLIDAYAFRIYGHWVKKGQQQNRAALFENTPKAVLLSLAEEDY
# In short: as §1
smiles,measurement,setting,value
"CCC(=O)Nc1cc(Nc2cc(NC3CC3)n3ncc(C#N)c3n2)c(F)cc1N1CCC[C@H](NC)C1 [Compound 2, (S)-N-(5-((3-cyano-7-(cyclopropylamino)pyrazolo[1,5-a]pyrimidin-5-yl)amino)-4-fluoro-2-(3-(methylamino)piperidin-1-yl)phenyl)propionamide]",receptor occupancy at 10 µM,[1],-7.4%
same,receptor occupancy at 10 µM,[2],4.9%
same,receptor occupancy at 10 µM,[3],2.7%
same,receptor occupancy at 10 µM,[4],4.2%
same,receptor occupancy at 10 µM,[5],0.4%
same,receptor occupancy at 10 µM,[6],17.5%
same,receptor occupancy at 10 µM,[7],13.1%
same,receptor occupancy at 10 µM,[8],19.5%
same,receptor occupancy at 10 µM,[9],24.5%
same,receptor occupancy at 10 µM,[10],-11.1%
same,% occupancy at 10 μM,"[11]; CSNK2A1, HEK293",97%
same,receptor occupancy at 10 µM,"[11]; HEK293, CSNK2A1",97.3%
same,receptor occupancy at 10 µM,[12],6.6%
same,receptor occupancy at 10 µM,[13],25.2%
same,receptor occupancy at 10 µM,[14],1.5%
same,receptor occupancy at 10 µM,[15],4.5%
same,receptor occupancy at 10 µM,[16],11.9%
same,receptor occupancy at 10 µM,[17],10.1%
same,receptor occupancy at 10 µM,[18],17.8%
same,receptor occupancy at 10 µM,[19],-0.5%
same,receptor occupancy at 10 µM,[20],45.5%
same,receptor occupancy at 10 µM,[21],21.5%
same,receptor occupancy at 10 µM,[22],13.6%
same,receptor occupancy at 10 µM,[23],14.2%
same,receptor occupancy at 10 µM,[24],-0.7%
same,% occupancy at 10 μM,"[25]; DYRK1A, HEK293",71%
same,receptor occupancy at 10 µM,"[25]; HEK293, DYRK1A",71.2%
same,receptor occupancy at 10 µM,[26],-2.5%
same,receptor occupancy at 10 µM,"[27]; HEK293, PHKG1",55.3%
same,% occupancy at 10 μM,"[27]; PHKG1, HEK293",55%
